Assay [1] concerns the target T1, rM4 receptors (Rattus norvegicus, UniProt P08485).
T1 construct: expressed in transfected cells; host or cells: CHO cells
T1 sequence (P08485 1-478): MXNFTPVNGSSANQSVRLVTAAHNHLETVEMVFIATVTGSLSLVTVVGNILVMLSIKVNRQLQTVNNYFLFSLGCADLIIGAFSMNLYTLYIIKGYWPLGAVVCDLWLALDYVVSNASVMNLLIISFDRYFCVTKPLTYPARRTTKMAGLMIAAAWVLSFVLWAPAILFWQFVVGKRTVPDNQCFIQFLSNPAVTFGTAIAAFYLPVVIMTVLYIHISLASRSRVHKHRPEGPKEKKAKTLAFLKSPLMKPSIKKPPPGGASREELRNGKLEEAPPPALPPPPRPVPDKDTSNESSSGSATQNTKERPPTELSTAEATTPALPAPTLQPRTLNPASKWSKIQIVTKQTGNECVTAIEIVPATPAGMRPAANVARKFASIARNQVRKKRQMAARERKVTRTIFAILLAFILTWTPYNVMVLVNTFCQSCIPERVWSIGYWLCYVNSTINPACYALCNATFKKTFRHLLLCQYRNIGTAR
Nature of the assay: Rat M4 PAM pERK assay. Conditions: PAM mode. In kind it is cell-based. Here is the method:
(§1) Chinese hamster ovary (CHO) cells expressing either hM4 or rM4 receptors were frozen in assay ready vials (5×10^6 cells/vial) after bulking-up in culture. The day before an assay, vial(s) were thawed and cells seeded in 384 well white proxiplates at 1000/well for hM4 cells and at 2000/well for rM4 cells, in 10 μL of growth media (Hams/F12 with glutamax and 10% FCS) and incubated overnight at 37° C./5% CO2.
(§2) On the following morning, the growth media was removed by ‘flicking out’ over a bin, patting the inverted plate onto tissue, and then replacing with 10 μL of wash media (Hams/F12 with glutamax and 8 mM HEPES, NB: serum free). Then, the wash media was removed in the same way and replaced with 8 μL/well of the serum free media. Plates were then re-incubated for a further 4 hours at 37° C./5% CO2.
(§3) Compounds for testing were solubilized to 10 mM in DMSO and compound addition plates, consisting of ten-point concentration response curves (CRC) in duplicate points (10 μM top concentration, […]), were prepared by acoustic dispensing and the compound management group.
(§4) After the 4-hour incubation in serum free media, a 4 μL aliquot of the 3× compound solution containing an EC20 of acetylcholine (10 nM final concentration) was added to the cell plate using a 384 well plate to plate transfer. Then, the plate lid was replaced, and the cells incubated for 5 mins at 37° C./5% CO2. Following this final incubation, all cellular processes were stopped by the addition of 4 μL/well of lysis and blocking buffer and plates were incubated for 30 minutes at RT on an orbital shaker (gentle setting). Then, a final addition of 4 μL/well of antibody detection mix, containing both the Europium-Cryptate (donor) and d2 (acceptor) tagged detection components, was added followed by a further 2-hour incubation at RT, and then the plate was read using a TR-FRET (time resolved fluorescence resonance energy transfer) based protocol.

For assay [2], the target named is T2, human M4 receptor (Homo sapiens, UniProt P08173).
T2 construct: expressed in transfected cells
T2 sequence (P08173 1-479): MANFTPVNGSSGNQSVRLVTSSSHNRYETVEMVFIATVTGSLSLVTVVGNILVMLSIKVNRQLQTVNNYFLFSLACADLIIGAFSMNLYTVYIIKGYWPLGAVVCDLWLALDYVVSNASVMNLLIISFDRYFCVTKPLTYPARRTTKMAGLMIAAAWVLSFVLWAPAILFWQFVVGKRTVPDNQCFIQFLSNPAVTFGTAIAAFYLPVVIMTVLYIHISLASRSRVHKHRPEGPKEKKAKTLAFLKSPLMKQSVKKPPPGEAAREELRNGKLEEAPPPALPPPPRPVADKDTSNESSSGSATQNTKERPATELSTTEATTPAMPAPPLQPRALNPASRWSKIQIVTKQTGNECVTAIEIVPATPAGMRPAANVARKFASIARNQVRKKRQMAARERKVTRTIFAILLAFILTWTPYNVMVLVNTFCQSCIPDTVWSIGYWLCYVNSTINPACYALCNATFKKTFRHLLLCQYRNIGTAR
Nature of the assay: M4 GTPγS PAM assay. In kind it is biochemical. Conditions: CHO-K1 membranes expressing human M4, with EC20 acetylcholine (40 nM). Here is the method: The M4 GTPγS PAM method was used. Membranes were prepared for GTPgS binding assays from CHO-K1 cells stably expressing human M4 receptor. Briefly, cells were grown in 5-layer cell culture flasks. Cells were washed with 50 mL of PBS and then dissociated with 0.05% trypsin. Dissociated cells were then collected by centrifugation at 650×g for 8 minutes at 4° C. Pellets were washed again in PBS by centrifugation and resuspended in 30 mL of 20 mM HEPES, 10 mM EDTA, pH 7.4. After sitting on ice for 30 min, membranes were collected by centrifugation at 50000×g for 15′ at 4° C., resuspended in 30 mL of 20 mM HEPES, 0.1 mM EDTA, pH 7.4 and collected again by centrifugation. Pellets were then washed twice by centrifugation in 30 mL of 20 mM HEPES, pH 7.4, and stored at −80° C. until the day of the assay. On the day of the assay, pellets were thawed on ice and resuspended in 1 mL of 20 mM HEPES, pH 7.4, 10 mM MgCl2, 100 mM NaCl using dounce homogenization. Membrane protein concentration is determined by BCA protein assay (Promega, Madison, WI) according to Promega guidelines.
On the day of the assay, serial dilutions of test PAM compounds were brought up in assay buffer (20 mM HEPES, 10 mM MgCl2, 100 mM NaCl) at 4× final assay concentration. […] of membrane homogenates (containing […] of membrane protein) were prepared in assay buffer supplemented with GDP at 4× final assay concentration (final assay concentration of GDP is 5 uM for M2 and 0.1 uM for M4) and dispensed into 96 well polypropylene, U-bottom Greiner plates. […] of vehicle or test PAM compound at 4× of final assay concentration diluted in the assay buffer were added to membrane and plates are incubated for 10-15 minutes at room temperature with gentle shaking. Then, […] of EC20 acetylcholine in assay buffer at 4× final assay concentration was added to assay plates (EC20 final assay concentrations was 40 nM for human M4).
Plates were then incubated, with shaking, for an additional 10-15 minutes. 25 mL of 0.4 nM ^35S-GTP (Perkin Elmer, Waltham, MA) in assay buffer was added to assay mixtures. The binding reaction is left on the shaker for 1 hour at room temperature. Membranes in assay reactions were then transferred to GF/C filter plates (Unifilter, Perkin Elmer) and washed three times using a FilterMate Harvester (Perkin Elmer) with cold assay buffer containing no GDP. Filter plates were then dried at 40° C. overnight followed by the addition of […] of Beta Plate Scintillation liquid. Plates are top and bottom sealed before being read on TopCount scintillation counter (Perkin Elmer, Waltham, MA).

Assay [3] concerns the target T3, hM4 receptors (Homo sapiens, UniProt P08173).
T3 construct: expressed in transfected cells; host or cells: CHO cells
T3 sequence (P08173 1-479): T2 sequence (P08173 1-479)
Nature of the assay: Human M4 PAM pERK assay. In kind it is cell-based. The conditions noted are these: PAM mode. Here is the method: as §1, §2, §3, §4

SMILES strings stand for the structures.

Broadly, the EC50 is the concentration at which the effect is half-maximal. In the case of `Cc1c2c(n(C)c(=O)c1Cl)C(C)N(C(=O)c1cnn(C(F)(F)F)c1)C2` (stereo not shown) [Compound I-109], the EC50 in assay [1] was over 2000 nM; in assay [2] it was over 2000 nM; in assay [3] it was 500 to 2000 nM.

As to `Cc1cc(=O)n(C)c2c1C(C)N(C(=O)c1ccc3nc(C4CC4)sc3c1)C2` (single isomer, unassigned) [Compound I-99], the EC50 lay within 500 to 2000 nM in assay [1], 500 to 2000 nM in assay [2] and 100 to 500 nM in assay [3].

As to `Cc1c2c(n(C)c(=O)c1Cl)CN(C(=O)c1ccc(C(F)(F)F)cc1)C2` [Compound I-41], the results for the EC50 in assay [1], in assay [2] and in assay [3] were 500 to 2000 nM, 100 to 500 nM and 100 to 500 nM, respectively.

As for `Cc1c2c(n(C)c(=O)c1Cl)CN(C(=O)c1cn3c(n1)CCCC3)C2` [Compound I-24], the results for the half-maximal effective concentration (EC50) in assay [1], in assay [2] and in assay [3] were over 2000 nM, over 2000 nM and 500 to 2000 nM, respectively.

Take `Cc1c2c(n(C)c(=O)c1Cl)CN(C(=O)c1ccc3nc(C4CC4)sc3c1)C2` [Compound I-52, 3-Chloro-6-(2-cyclopropylbenzo[d]thiazole-6-carbonyl)-1,4-dimethyl-1,5,6,7-tetrahydro-2H-pyrrolo[3,4-b]pyridin-2-one]: the EC50 lay within 100 to 500 nM in assay [1], 500 to 2000 nM in assay [2] and 100 to 500 nM in assay [3].

Turning to `Cc1c2c(n(C)c(=O)c1Cl)CN(C(=O)c1cncc(C(F)(F)F)c1)C2` [Compound I-48], the EC50 in assay [2] and in assay [3] was over 2000 nM in each case.

As for `Cc1cc(=O)n(C)c2c1CN(C(=O)c1cnn(C)c1)C2C` (single isomer, unassigned) [Compound I-106], the concentration for a half-maximal effect (EC50) in assay [2] and in assay [3] was over 2000 nM each time.

For the compound `Cc1cc(=O)n(C)c2c1CN(C(=O)c1cnn(C)c1)C2C` (stereo not shown) [Compound I-105, 1,4,7-Trimethyl-6-(1-methyl-1H-pyrazole-4-carbonyl)-1,5,6,7-tetrahydro-2H-pyrrolo[3,4-b]pyridin-2-one], the 50% effective concentration (EC50) in assay [2] and in assay [3] was over 2000 nM each time.

For `Cc1c2c(n(C)c(=O)c1Cl)CN(C(=O)c1cnn(Cc3ccncc3)c1)C2` [Compound I-60], the EC50 in assay [1] is over 2000 nM; in assay [3], 100 to 500 nM.

In the case of `Cc1c2c(n(C)c(=O)c1Cl)CN(C(=O)c1ccc3cncn3c1)C2` [Compound I-47], the results for the EC50 in assay [1] and in assay [3] were 500 to 2000 nM and under 100 nM, respectively.

Consider `Cc1c2c(n(C)c(=O)c1Cl)CN(C(=O)c1ccn(C(F)(F)F)n1)C2` [Compound I-16], for which the values for the EC50 in assay [1] and in assay [3] were over 2000 nM and 100 to 500 nM, respectively.

In the case of `Cc1c2c(n(C)c(=O)c1Cl)CN(C(=O)c1cnn(Cc3ccccc3)c1)C2` [Compound I-23], the EC50 fell in the range of 500 to 2000 nM in assay [1] and 100 to 500 nM in assay [3].

For the compound `Cc1c2c(n(C)c(=O)c1Cl)CN(C(=O)c1cn(C)c(C)n1)C2` [Compound I-11], the EC50 in assay [2] and in assay [3] was over 2000 nM in each case.

On to `COc1c2c(n(C)c(=O)c1C)CN(C(=O)c1cnc(CC3CC3)s1)C2` [Compound I-86], for which the EC50 in assay [1] was over 2000 nM; in assay [3], 100 to 500 nM.

As for `Cc1c2c(n(C)c(=O)c1Cl)CN(C(=O)c1cnn(CC3CCCC3)c1)C2` [Compound I-55], the EC50 in assay [1] was over 2000 nM; in assay [3], 100 to 500 nM.

`Cc1c2c(n(C)c(=O)c1Cl)CN(C(=O)c1cnc(CC(C)C)s1)C2` [Compound I-34]: the values for the concentration giving a half-maximal response (EC50) in assay [1] and in assay [3] were 500 to 2000 nM and 100 to 500 nM, respectively.

For `COCc1ncc(C(=O)N2Cc3c(C)c(Cl)c(=O)n(C)c3C2)s1` [Compound I-38], the EC50 is over 2000 nM in assay [1] and 100 to 500 nM in assay [3].

Take `CSc1c2c(n(C)c(=O)c1C)CN(C(=O)c1cnc(CC3CC3)s1)C2` [Compound I-91]: the EC50 in assay [1] is over 2000 nM; in assay [3], 100 to 500 nM.

`Cc1c2c(n(C)c(=O)c1Cl)CN(C(=O)c1cnn(C)c1)C2` [Compound I-2]: the EC50 in assay [1] is over 2000 nM; in assay [3], under 100 nM.

For `Cc1c2c(n(C)c(=O)c1Cl)CN(C(=O)c1ccc3c(c1)COC3)C2` [Compound I-50], the concentration for a half-maximal effect (EC50) in assay [1] and in assay [3] was 100 to 500 nM each time.

In the case of `Cc1c2c(n(C)c(=O)c1Cl)CN(C(=O)c1cnn(CC(F)(F)F)c1)C2` [Compound I-61], the EC50 was over 2000 nM in assay [1] and 500 to 2000 nM in assay [3].

With `Cc1c2c(n(CC3CC3)c(=O)c1Cl)CN(C(=O)c1cnc(CC3CC3)s1)C2` [Compound I-69, 3-Chloro-1-(cyclopropylmethyl)-6-(2-(cyclopropylmethyl)thiazole-5-carbonyl)-4-methyl-1,5,6,7-tetrahydro-2H-pyrrolo[3,4-b]pyridin-2-one], the values for the EC50 in assay [1] and in assay [3] were over 2000 nM and 100 to 500 nM, respectively.

As to `Cc1c2c(n(C)c(=O)c1Cl)CN(C(=O)c1ccc3ncsc3c1)C2` [Compound I-46], the EC50 was 500 to 2000 nM in assay [1] and under 100 nM in assay [3].

In the case of `Cc1c2c(n(CC3CC3)c(=O)c1Cl)CN(C(=O)c1ccc3nc(C4CCC4)sc3c1)C2` [Compound I-70], the EC50 in assay [1] and in assay [3] was 100 to 500 nM throughout.

On to `Cc1c2c(n(C)c(=O)c1Cl)CN(C(=O)c1cc(C(F)(F)F)n(C)c1)C2` [Compound I-68, 3-Chloro-1,4-dimethyl-6-(1-methyl-5-(trifluoromethyl)-1H-pyrrole-3-carbonyl)-1,5,6,7-tetrahydro-2H-pyrrolo[3,4-b]pyridin-2-one], for which the EC50 in assay [1] was 100 to 500 nM; in assay [3] it was under 100 nM.
